These results are taken from US11286238B2, “Melatonin derivatives, method thereof, and use thereof” (Xiamen Nuokangde Biological Technology Co., Ltd., priority 2020, dated 2022).

The subject of one data set is B16F10 cell lines. As to the kind of experiment: Cytotoxicity assay (CCK-8). The format is cell-based. The following applies: for Effect on cell proliferation at a low concentration / Effect on cell proliferation rate at higher concentrations: B16F10, 24 hours; for Effect on cell proliferation at a low concentration: CCK-8, absorbance 450 nm; for Effect on cell proliferation rate at higher concentrations: CCK-8, 5 mM and 10 mM. Here is the method: B16F10 cell lines were incubated into a plate with 96 wells. After cell adherence, a Mel solution with different concentrations or a Mels solution with different concentrations was respectively added to one of the 96 wells in turn. Final concentrations of the Mel solution or the Mels solution were respectively 10 μM (10 μmol/L), 100 μM (100 μmol/L), 1 mM (1 mmol/L), 5 mM (5 mmol/L), and 10 mM (10 mmol/L). After incubating for 24 hours, CCK-8 (Cell Counting Kit-8) was added into each one of the 96 wells. Absorbance of the Mel solution and the Mels solution was measured at 450 nm.

For data set [1] the following is noted: as disclosed in SCCS Opinion on MLT, 23 Mar. 2010; cited from earlier work.
Data set [2] in a line: Solubility determination in water. The format is physicochemical. As for the experimental part: In order to evaluate solubility of a new melatonin derivative of Embodiment 1, solubility of Mel and Mels were tested. […] Therefore, the solubility of Mels is nearly 700 times (695 times) the solubility of Mel (FIG. 4). Good water solubility of Mels can greatly improve application and greatly contribute to the research of this molecule in the field of medicine and biology.

The next data set relates to mice. The data set is described as follows: Sleep experiment in sodium pentobarbital mouse sleep models. The format is in vivo. Here is the method:
Mouse sleep models were established by injecting 300 μL 1% sodium pentobarbital solution into mice, and then dividing the mice into three groups. Each group comprised five mice. A first group of the three groups were injected with 100 μL normal saline as a control group, a second group of the three groups were injected with 100 μL natural unmodified melatonin (Mel) solution, a concentration of Mel was 86 μM (86 μmol/L) or 860 nM (860 nmol/L), and a third group of the three groups was injected with modified melatonin (Mels) solution with the same concentration and volume as that of the second group. A sleep duration began to be recorded one minute after a loss of righting reflex, and recording ended when the righting reflex returned.

For another data set, the system named is C57/B6 mice. The data set is described as follows: Safety verification in vivo (body weight and diet changes). Details: species or system mouse. The following applies: intraperitoneal. Here is the method: To test a safety of Mels of Embodiment 1 in vivo, Mel, Mels, or saline was intraperitoneally injected into mice. Using C57/B6 mice (about 18 g), the mice were randomly divided into three groups: a control group, a Mel group, and a Mels group. Then, 200 μL of normal saline, Mel and Mels solution (dissolving Mel and Mels in saline containing 5% DMSO, 10 mmol/L) were respectively intraperitoneally injected into the mice. The injection process was repeated three times at days 2, 6, and 10, and body weight changes and diet changes of mice were recorded. […] In short, Mels has lower toxicity and good safety in vitro and in vivo.

On to `COc1ccc2[nH]cc(CCNC(C)=O)c2c1` [Mel, melatonin], for which, in the data set on B16F10 cell lines, the “Effect on cell proliferation at a low concentration” value is “no effects on cell proliferation” and the “Effect on cell proliferation rate at higher concentrations” value is given as “affected cell proliferation rate”. Moreover, the “Solubility in 100 mL water” value in data set [1] is given as 0.2 g.
Turning to `COc1ccc2c(c1)c(CCNC(C)=O)cn2CCCCS(=O)(=O)[O-].[Na+]` [Mels, 4-(3-(2-acetamidoethyl)-5-methoxy-1H-indol-1-yl) butane-1-sulfonate], the solubility in data set [2] (in 100 mL water) was found to be 1600 mg/mL. Besides, the “Solubility of Mels relative to solubility of Mel” value in data set [2] (water solubility ratio versus melatonin) came out at 695 times. In the data set on mice (mice given 300 μL 1% sodium pentobarbital, 100 μL of 86 μM or 860 nM solution injected, prolonged from 1 hour), the “Sleep time of mice” value was 3 h. Also, in the data set on mice (same concentration and volume as Mel (86 μM or 860 nM, 100 μL)), the “Effect on sleep compared with Mel” value is given as “same effect as Mel”. For the same compound, in the data set on B16F10 cell lines, the “Effect on cell proliferation at a low concentration” value was “no effects on cell proliferation” and the “Effect on cell proliferation rate at higher concentrations” value is given as “little affected on cell proliferation rate”. The “Cytotoxicity on cells compared with Mel” value with B16F10 cell lines (B16F10, at an even higher concentration) is given as “much smaller than that of Mel”. The “Effect on body weights and diets of the mice” value with C57/B6 mice (200 μL of 10 mmol/L in saline with 5% DMSO, days 2, 6 and 10, versus control group and Mel group) is given as “no significant effect”. The Safety in vivo entry with C57/B6 mice (C57/B6 mice, 10 mmol/L, 200 μL, three injections) is given as “good safety in vivo”.

By solubility is commonly meant the concentration that dissolves in the medium under given conditions. Read a low solubility as little dissolved substance.
